From patent US8609661B2, “Pyrimido-pyrrolo-quinoxalinedione inhibitors of cystic fibrosis transmembrane conductance regulator protein and uses therefor” (The Regents of the University of California, priority 2009, dated 2013) come the findings set out here.

pIC50: −log10 of the molar value. Read-outs that look alike come from different tables or passages of the source.

The target of this experiment is T1, human wildtype CFTR (Homo sapiens, UniProt P13569).
T1 construct: expressed in transfected cells; host or cells: Fischer rat thyroid (FRT) cells
Nature of the experiment: Fluorescence platereader assay of CFTR-mediated iodide influx (YFP quenching) in FRT cells. The experiment is classed as cell-based. The conditions noted are these: for inhibition at 5 µM / inhibition at 25 µM: FRT; for pIC50: apparent IC50 from concentration-inhibition data, fluorescence platereader assay. The method, then: A. Cell lines and compounds—Fischer rat thyroid (FRT) cells co-expressing human wildtype CFTR and the halide indicator YFP-H148Q/1152L were generated as described (see, e.g., Ma et al., J. Clin. Invest. 110:1651-1658 (2002)). Cells were plated in 96-well black-walled microplates (Corning Costar) at a density of 20,000 cells per well in Coon's modified F12 medium supplemented with 5% fetal calf serum, 2 mM L-glutamine, 100 U/mL penicillin, and 100 μg/ml streptomycin. Assays were performed at 48 h after plating the cells when the cells were just confluent. For some experiments, measurements were made using T84 human intestinal epithelial cells and for other experiments, measurements were obtained using primary cultures of human bronchial epithelial cells, which were obtained and grown essentially as previously described (see, e.g., 3 and 27).
B. Compound Screening—Assays were performed using an automated screening platform (Beckman) equipped with FLUOStar fluorescence platereaders (BMG Lab Technologies, Offenburg, Germany) as described (see Ma et al., supra). Each well of a 96-well plate containing FRT cells was washed 3 times in PBS (300 μL/wash), leaving 50 μL PBS. […] After 15 min, 96-well plates were transferred to a plate reader for fluorescence assay. Each well was assayed individually for CFTR-mediated iodide influx by recording fluorescence continuously (200 ms per point) for 2 s (baseline) and then for 10 s after rapid addition of 160 μL of isosmolar PBS in which 137 mM chloride was replaced by iodide. The initial rate of iodide influx was computed from fluorescence data by non-linear regression.
Collections of synthetic and natural compounds were screened according to the screening procedures described in Example 2. A cell-based fluorescence assay was used in which CFTR inhibitors were identified by reduced iodide influx in FRT cells co-expressing human CFTR and a YFP halide sensor. CFTR was maximally activated by a mixture of agonists having different activating mechanisms. Inhibition of iodide influx was observed as reduced YFP fluorescence quenching in response to rapid iodide addition to each well of 96-well plates. […]

Setting [1] is: read-out: % inhibition at 25/5 μM (5 μM value), Table 1, 5 μM compound.
The mark [2] stands for this setting: Table 2, screening, 5 μM, read-out: % Inhibition at 5 μM.
Setting [3] is: Table 2, screening, 25 μM, read-out: % Inhibition at 25 μM.
[4] abbreviates: read-out: % inhibition at 25/5 μM (25 μM value), Table 1, 25 μM compound.

T1 sequence (P13569 whole entry): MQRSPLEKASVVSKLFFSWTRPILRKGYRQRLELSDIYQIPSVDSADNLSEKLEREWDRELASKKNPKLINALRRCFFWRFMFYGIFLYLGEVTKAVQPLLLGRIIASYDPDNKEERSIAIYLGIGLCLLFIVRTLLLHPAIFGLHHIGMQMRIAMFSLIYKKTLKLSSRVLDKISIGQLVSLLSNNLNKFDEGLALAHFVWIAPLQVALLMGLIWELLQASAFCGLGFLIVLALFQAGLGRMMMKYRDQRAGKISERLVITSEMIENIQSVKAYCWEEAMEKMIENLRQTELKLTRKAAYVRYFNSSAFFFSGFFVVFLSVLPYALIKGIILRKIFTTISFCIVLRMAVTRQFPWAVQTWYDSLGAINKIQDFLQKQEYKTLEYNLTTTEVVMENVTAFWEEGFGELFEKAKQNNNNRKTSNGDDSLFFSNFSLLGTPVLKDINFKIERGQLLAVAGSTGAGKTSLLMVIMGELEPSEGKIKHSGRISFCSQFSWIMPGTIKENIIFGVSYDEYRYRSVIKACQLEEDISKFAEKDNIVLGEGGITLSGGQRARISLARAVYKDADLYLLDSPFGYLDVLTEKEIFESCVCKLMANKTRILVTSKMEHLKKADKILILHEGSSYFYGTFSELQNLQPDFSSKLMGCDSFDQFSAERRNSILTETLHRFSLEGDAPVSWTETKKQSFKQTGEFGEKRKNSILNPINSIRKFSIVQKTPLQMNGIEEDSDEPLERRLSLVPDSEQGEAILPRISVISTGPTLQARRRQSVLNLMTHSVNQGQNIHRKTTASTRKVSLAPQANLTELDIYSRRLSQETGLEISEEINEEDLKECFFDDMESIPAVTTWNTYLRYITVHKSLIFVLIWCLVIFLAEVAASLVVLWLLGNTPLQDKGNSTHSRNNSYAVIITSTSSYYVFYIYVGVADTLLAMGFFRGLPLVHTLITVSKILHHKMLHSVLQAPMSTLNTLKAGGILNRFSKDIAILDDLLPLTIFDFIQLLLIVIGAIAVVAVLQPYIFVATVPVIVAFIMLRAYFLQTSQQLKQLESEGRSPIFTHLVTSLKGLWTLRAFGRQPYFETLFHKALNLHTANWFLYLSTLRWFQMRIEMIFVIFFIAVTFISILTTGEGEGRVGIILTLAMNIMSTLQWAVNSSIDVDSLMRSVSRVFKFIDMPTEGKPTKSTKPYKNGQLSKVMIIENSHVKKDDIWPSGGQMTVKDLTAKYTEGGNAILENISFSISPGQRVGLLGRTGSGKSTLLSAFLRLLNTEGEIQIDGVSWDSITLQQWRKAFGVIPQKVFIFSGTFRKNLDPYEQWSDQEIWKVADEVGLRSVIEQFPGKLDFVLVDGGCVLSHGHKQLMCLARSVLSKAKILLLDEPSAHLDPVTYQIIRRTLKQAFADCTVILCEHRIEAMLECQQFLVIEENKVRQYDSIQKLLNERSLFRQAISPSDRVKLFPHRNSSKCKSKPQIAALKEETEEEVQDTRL

Regarding `COc1cccc(C2Nc3ccccc3-n3c(-c4ccccc4C)c4c(=O)n(C)c(=O)n(C)c4c32)c1` (stereo not drawn) [PPQ-216, 7,9-Dimethyl-11-(2-methylphenyl)-6-(3-methoxyphenyl)-5,6-dihydro-pyrimido[4′,5′-3,4]pyrrolo[1,2-a]quinoxaline-8,10-(7H,9H)-dione], the pIC50 is 5.52. Also, under setting [1], the inhibition at 5 µM came out at 62%. Further, under setting [2], the inhibition at 5 µM came to 62%. In addition, the inhibition at 25 µM under setting [3] is over 95%.

Regarding `Cn1c(=O)c2c(-c3ccccc3)n3c(c2n(C)c1=O)C(c1ccc(O)cc1)Nc1ccccc1-3` (stereo not drawn) [PPQ-207, 7,9-Dimethyl-11-phenyl-6-(4-hydroxyphenyl)-5,6-dihydro-pyrimido[4′,5′-3,4]pyrrolo[1,2-a]quinoxaline-8,10-(7H,9H)-dione], the pIC50 was 5.35. For the same molecule, under setting [1], the inhibition at 5 µM is 64%. Further, the inhibition at 25 µM under setting [4] is 86%. For the same molecule, under setting [2], the inhibition at 5 µM was 64%. The inhibition at 25 µM under setting [3] is 86%.

As to `COc1cc(O)ccc1C1Nc2ccccc2-n2c(-c3cccc(C)c3)c3c(=O)n(C)c(=O)n(C)c3c21` (stereo not drawn) [PPQ-245, 7,9-Dimethyl-11-(3-methylphenyl)-6-(2-methoxy-4-hydroxyphenyl)-5,6-dihydro-pyrimido[4′,5′-3,4]pyrrolo[1,2-a]quinoxaline-8,10-(7H,9H)-dione], the inhibition at 5 µM under setting [2] is 20%. The inhibition at 25 µM under setting [3] came out at 55%.

As for `Cc1ccccc1-c1c2c(=O)n(C)c(=O)n(C)c2c2n1-c1ccccc1NC2c1cccc(O)c1` (stereo not drawn) [PPQ-242, 7,9-Dimethyl-11-(2-methylphenyl)-6-(3-hydroxyphenyl)-5,6-dihydro-pyrimido[4′,5′-3,4]pyrrolo[1,2-a]quinoxaline-8,10-(7H,9H)-dione], the inhibition at 5 µM under setting [2] was 15%. The inhibition at 25 µM under setting [3] stood at 74%.

Turning to `COc1ccc(-c2c3c(=O)n(C)c(=O)n(C)c3c3n2-c2ccccc2NC3c2ccccc2F)cc1` (stereo not drawn), the inhibition at 5 µM under setting [2] was under 10%. In addition, the inhibition at 25 µM under setting [3] stood at 39%.

Consider `Cc1ccccc1-c1c2c(=O)n(C)c(=O)n(C)c2c2n1-c1ccccc1NC2c1ccco1` (stereo not drawn) [PPQ-108, 7,9-Dimethyl-11-(2-methylphenyl)-6-(furan-2-yl)-5,6-dihydro-pyrimido[4′,5′-3,4]pyrrolo[1,2-a]quinoxaline-8,10-(7H,9H)-dione], for which the inhibition at 5 µM under setting [2] worked out at 18%. For the same molecule, under setting [3], the inhibition at 25 µM is 70%.

As to `Cn1c(=O)c2c(-c3ccccc3)n3c(c2n(C)c1=O)C(c1cccs1)Nc1ccccc1-3` (stereo not drawn) [PPQ-113, 7,9-Dimethyl-11-phenyl-6-(thienyl-2-yl)-5,6-dihydro-pyrimido[4′,5′-3,4]pyrrolo[1,2-a]quinoxaline-8,10-(7H,9H)-dione], the inhibition at 5 µM under setting [2] is 34%. Moreover, the inhibition at 25 µM under setting [3] amounted to 77%.

In the case of `Cn1c(=O)c2c(-c3ccccc3)n3c(c2n(C)c1=O)C(c1cccc(F)c1F)Nc1ccccc1-3` (stereo not drawn) [PPQ-201, 7,9-Dimethyl-11-phenyl-6-(2,3-difluorophenyl)-5,6-dihydro-pyrimido[4′,5′-3,4]pyrrolo[1,2-a]quinoxaline-8,10-(7H,9H)-dione], the negative-log IC50 (pIC50) was 5.92. The inhibition at 5 µM under setting [1] stood at 72%. Moreover, the inhibition at 25 µM under setting [4] came to 93%. Further, the inhibition at 5 µM under setting [2] came to 72%. In addition, the inhibition at 25 µM under setting [3] turned out to be 93%.

Take `COc1ccc(-c2c3c(=O)n(C)c(=O)n(C)c3c3n2-c2ccccc2NC3c2cccc(O)c2)cc1` (stereo not drawn): the inhibition at 5 µM under setting [2] is under 10%. For the same molecule, the inhibition at 25 µM under setting [3] is 33%.

With `Cc1cccc(-c2c3c(=O)n(C)c(=O)n(C)c3c3n2-c2ccccc2NC3c2ccco2)c1` (stereo not drawn) [PPQ-106, 7,9-Dimethyl-11-(3-methylphenyl)-6-(furan-2-yl)-5,6-dihydro-pyrimido[4′,5′-3,4]pyrrolo[1,2-a]quinoxaline-8,10-(7H,9H)-dione], under setting [2], the inhibition at 5 µM was 49%. Further, under setting [3], the inhibition at 25 µM came out at 96%.

For the molecule `Cc1ccccc1-c1c2c(=O)n(C)c(=O)n(C)c2c2n1-c1ccccc1NC2c1cccc(O)c1O` (stereo not drawn), the inhibition at 5 µM under setting [2] is under 10%. Also, the inhibition at 25 µM under setting [3] came out at 30%.

As to `COc1ccc(-c2c3c(=O)n(C)c(=O)n(C)c3c3n2-c2ccccc2NC3c2cccc(F)c2F)cc1` (stereo not drawn) [PPQ-252, 7,9-Dimethyl-11-(4-methoxyphenyl)-6-(2,3-difluorophenyl)-5,6-dihydro-pyrimido[4′,5′-3,4]pyrrolo[1,2-a]quinoxaline-8,10-(7H,9H)-dione], the inhibition at 5 µM under setting [2] was under 10%. Besides, the inhibition at 25 µM under setting [3] was 78%.

For `Cc1cc2c(cc1C)-n1c(-c3ccccc3)c3c(=O)n(C)c(=O)n(C)c3c1C(c1ccco1)N2` (stereo not drawn) [PPQ-107, 2,3,7,9-Tetramethyl-11-phenyl-6-(furan-2-yl)-5,6-dihydro-pyrimido[4′,5′-3,4]pyrrolo[1,2-a]quinoxaline-8,10-(7H,9H)-dione], the inhibition at 5 µM under setting [2] stood at 24%. In addition, the inhibition at 25 µM under setting [3] was 87%.

`Cc1ccc(C2Nc3cc(C)c(C)cc3-n3c(-c4ccccc4F)c4c(=O)n(C)c(=O)n(C)c4c32)o1` (stereo not drawn) [PPQ-105, 2,3,7,9-Tetramethyl-11-(2-fluorophenyl)-6-(5-methylfuran-2-yl)-5,6-dihydro-pyrimido[4′,5′-3,4]pyrrolo[1,2-a]quinoxaline-8,10-(7H,9H)-dione]: the negative logarithm of the IC50 (pIC50) is 5.82. The inhibition at 5 µM under setting [2] turned out to be 78%. Also, under setting [3], the inhibition at 25 µM stood at 78%.

In the case of `COc1ccc(-c2c3c(=O)n(C)c(=O)n(C)c3c3n2-c2ccccc2NC3c2cccc(OC)c2)cc1` (stereo not drawn), under setting [2], the inhibition at 5 µM was found to be 13%. Further, the inhibition at 25 µM under setting [3] was 47%.

In the case of `Cc1cccc(-c2c3c(=O)n(C)c(=O)n(C)c3c3n2-c2ccccc2NC3c2cccc([N+](=O)[O-])c2)c1` (stereo not drawn) [PPQ-225, 7,9-Dimethyl-11-(3-methylphenyl)-6-(3-nitrophenyl)-5,6-dihydro-pyrimido[4′,5′-3,4]pyrrolo[1,2-a]quinoxaline-8,10-(7H,9H)-dione], the inhibition at 5 µM under setting [2] amounted to 61%. In addition, the inhibition at 25 µM under setting [3] amounted to 94%.

In the case of `Cn1c(=O)c2c(-c3ccccc3)n3c(c2n(C)c1=O)C(c1cccc([N+](=O)[O-])c1)Nc1ccccc1-3` (stereo not drawn) [PPQ-202, 7,9-Dimethyl-11-phenyl-6-(3-nitrophenyl)-5,6-dihydro-pyrimido[4′,5′-3,4]pyrrolo[1,2-a]quinoxaline-8,10-(7H,9H)-dione], the pIC50 was 5.92. Moreover, the inhibition at 5 µM under setting [1] is 60%. Further, the inhibition at 25 µM under setting [4] stood at 90%. The inhibition at 5 µM under setting [2] stood at 60%. For the same molecule, the inhibition at 25 µM under setting [3] is 90%.

`COc1cccc(C2Nc3ccccc3-n3c(-c4cccc(C)c4)c4c(=O)n(C)c(=O)n(C)c4c32)c1O` (stereo not drawn): the inhibition at 5 µM under setting [2] is under 10%. The inhibition at 25 µM under setting [3] was determined as 31%.

For `Cc1ccc(-c2c3c(=O)n(C)c(=O)n(C)c3c3n2-c2ccccc2NC3c2ccc(C)o2)cc1` (stereo not drawn) [PPQ-110, 7,9-Dimethyl-11-(4-methylphenyl)-6-(5-methylfuran-2-yl)-5,6-dihydro-pyrimido[4′,5′-3,4]pyrrolo[1,2-a]quinoxaline-8,10-(7H,9H)-dione], under setting [2], the inhibition at 5 µM was determined as 21%. Further, the inhibition at 25 µM under setting [3] was found to be 57%.

In the case of `Cn1c(=O)c2c(-c3ccc(Cl)cc3)n3c(c2n(C)c1=O)C(c1ccccc1)Nc1ccccc1-3` (stereo not drawn), the inhibition at 5 µM under setting [2] was under 10%. The inhibition at 25 µM under setting [3] is 34%.

As to `COc1ccc(C2Nc3ccccc3-n3c(-c4ccccc4F)c4c(=O)n(C)c(=O)n(C)c4c32)cc1` (stereo not drawn), under setting [2], the inhibition at 5 µM is under 10%. Besides, the inhibition at 25 µM under setting [3] turned out to be 33%.

As a reminder, the pIC50 is the negative decadic logarithm of the IC50, by convention in mol/L.
